Data: patent US9072758B2, “Cyclic amide derivative” (MOCHIDA PHARMACEUTICAL CO., LTD., priority 2011, dated 2015)

Biological target: T1, GPR40 of human origin (Homo sapiens, UniProt O14842)
T1 construct: expressed in transfected cells
Assay: Agonist action on GPR40 of human origin (Ca2+ fluctuation in a CHO cell strain stably expressing GPR40)
Type: cell-based
Conditions: Calcium 4 Assay Kit, fluorescence intensity variation
Method: A CHO cell strain stably expressing GPR40 of human origin was used to determine the agonist action of a title compound. This cell strain was seeded in a clear bottom 96 well plate at 2×10^4 cells/100 μL/well. The cell strain was cultured in a CO2 incubator overnight using a Ham's F-12 medium containing a 10% fetal bovine serum, 100 U/mL penicillin, 0.1 mg/mL streptomycin, and 400 μg/mL Geneticin. Calcium 4 Assay Kit (Molecular Devices) was used as a fluorescent calcium indicator. One mL of 77 mg/mL probenecid (Invitrogen) was added to 100 mL of a calcium indicator solution to prepare a solution (loading solution) mixed with a 20 mM HEPES-containing Hanks' balanced salt solution (HBSS) in equal proportions. To the cells from which the culture solution was removed, 200 μL of the loading solution was added, and the cells were cultured in a CO2 incubator for 1 hour. The title compound was diluted with a 20 mM HEPES-containing HBSS and was added to the cells by 50 μL, and the fluctuation of the Ca^2+ concentration was measured by an intracellular ion analyzer. The EC50 value of the title compound was calculated using the dose-response curve of fluorescence intensity variation.

T1 sequence (O14842 whole entry): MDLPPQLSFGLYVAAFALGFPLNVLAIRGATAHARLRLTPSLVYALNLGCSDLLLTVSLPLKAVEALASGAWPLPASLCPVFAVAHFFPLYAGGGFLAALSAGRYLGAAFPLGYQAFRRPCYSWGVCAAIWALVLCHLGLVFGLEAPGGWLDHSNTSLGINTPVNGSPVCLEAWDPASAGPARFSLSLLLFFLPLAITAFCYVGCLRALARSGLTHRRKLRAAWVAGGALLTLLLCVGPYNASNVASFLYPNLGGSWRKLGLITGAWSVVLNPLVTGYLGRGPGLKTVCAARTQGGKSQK

Row | SMILES | EC50 [nM]
1 | COc1ccc(Oc2cccc3c2CC[C@H]3Oc2ccc(C3CC(O)=N[S+]3[O-])cc2)cn1 (single isomer, unassigned) [52(A)-a] | < 300
2 | Cc1nc(OCCC(C)(C)O)ccc1Oc1cccc2c1CC[C@H]2Oc1ccc(C2CC(O)=N[S+]2[O-])cc1 (single isomer, unassigned) [51(A)-a] | < 300
3 | Cc1cc(O[C@@H]2CCc3c(-c4c(C)cc(OCCC(C)(C)O)cc4C)cccc32)ccc1C1CC(=O)NS(=O)(=O)C1 (stereo partly drawn) [Example 47, 5-(4-(((R)-4-(4-(3-hydroxy-3-methylbutoxy)-2,6-dimethylphenyl)-2,3-dihydro-1H-inden-1-yl)oxy)-2-methylphenyl)-1,2-thiazinan-3-one 1,1-dioxide] | < 300
4 | Cc1cccc(Oc2cccc3c2CC[C@H]3Oc2ccc(C3CC(O)=N[S+]3[O-])cc2)c1 (single isomer, unassigned) [53(A)-b] | < 300
5 | N#Cc1ccc(Oc2cccc3c2CC[C@H]3Oc2ccc(C3CC(=O)N[S+]3[O-])cc2)cc1 (single isomer, unassigned) [25(A)-b] | < 300
6 | CCOCCOc1ccc(-c2cccc3c2CC[C@H]3Oc2ccc(C3CC(O)=N[S+]3[O-])cc2)c(C)n1 (single isomer, unassigned) [54(A)-b] | < 300
7 | Cc1nc(OCCC(C)(C)O)ccc1-c1cccc2c1CC[C@H]2Oc1ccc(C2CC(=O)N[S+]2[O-])cc1 (single isomer, unassigned) [23(A)-a] | < 300
8 | Cc1ncccc1Oc1cccc2c1CC[C@H]2Oc1ccc(C2CC(O)=N[S+]2[O-])cc1 (single isomer, unassigned) [55(A)-a] | < 300
9 | Cc1ncccc1Oc1cccc2c1CC[C@H]2Oc1ccc(C2CC(O)=N[S+]2[O-])cc1 (single isomer, unassigned) [55(A)-b] | < 300
10 | Cc1cccc(C)c1-c1cccc2c1CC[C@H]2Oc1ccc(C2CC(=O)NS(=O)(=O)C2)cc1 (stereo partly drawn) [Example 43, 5-(4-(((R)-4-(2,6-dimethylphenyl)-2,3-dihydro-1H-inden-1-yl)oxy)phenyl)-1,2-thiazinan-3-one 1,1-dioxide] | < 300
11 | COc1ccc(Oc2cccc3c2CC[C@H]3Oc2ccc(C3CC(O)=N[S+]3[O-])cc2)cn1 (single isomer, unassigned) [52(A)-b] | < 300
12 | CCOCCOc1ccc(-c2cccc3c2CC[C@H]3Oc2ccc(C3CC(O)=N[S+]3[O-])cc2)c(C)n1 (single isomer, unassigned) [54(A)-a] | < 300
13 | Cc1nc(OCCC(C)(C)O)ccc1Oc1cccc2c1CC[C@H]2Oc1ccc(C2CC(O)=N[S+]2[O-])cc1 (single isomer, unassigned) [51(A)-b] | < 300
14 | Cc1cccc(Oc2cccc3c2CC[C@H]3Oc2ccc(C3CC(O)=N[S+]3[O-])cc2)c1 (single isomer, unassigned) [53(A)-a] | < 300
15 | Cc1nc(OCCC(C)(C)O)ccc1-c1cccc2c1CC[C@H]2Oc1ccc(C2CC(=O)NS(=O)(=O)C2)cc1 (stereo partly drawn) [Example 36, 5-(4-(((R)-4-(6-(3-hydroxy-3-methylbutoxy)-2-methylpyridin-3-yl)-2,3-dihydro-1H-inden-1-yl)oxy)phenyl)-1,2-thiazinan-3-one 1,1-dioxide] | < 300
16 | Cc1cccc(C)c1-c1cccc2c1CC[C@H]2Oc1ccc(C2CC(=O)NS(=O)(=O)C2)cc1 (stereo partly drawn) [Example 37, 5-(4-(((R)-4-(2,6-dimethylphenyl)-2,3-dihydro-1H-inden-1-yl)oxy)phenyl)-1,2-thiazinan-3-one 1,1-dioxide] | < 300
17 | CCOCCOc1cc(C)c(-c2cccc3c2CC[C@H]3Oc2ccc(C3CC(=O)NS(=O)(=O)C3)cc2)c(C)c1 (stereo partly drawn) [Example 39, 5-(4-(((R)-4-(4-(2-ethoxyethoxy)-2,6-dimethylphenyl)-2,3-dihydro-1H-inden-1-yl)oxy)phenyl)-1,2-thiazinan-3-one 1,1-dioxide] | < 300
18 | O=C1CC(c2ccc(O[C@@H]3CCc4c(-c5ccccc5C(F)(F)F)cccc43)cc2)CS(=O)(=O)N1 (stereo partly drawn) [Example 38, 5-(4-(((R)-4-(2-(trifluoromethyl)phenyl)-2,3-dihydro-1H-inden-1-yl)oxy)phenyl)-1,2-thiazinan-3-one 1,1-dioxide] | < 300
19 | CCOCCOc1cc(C)c(-c2cccc3c2CC[C@H]3Oc2ccc(C3CC(=O)NS(=O)(=O)C3)cc2)c(C)c1 (stereo partly drawn) [Example 42, 5-(4-(((R)-4-(4-(2-ethoxyethoxy)-2,6-dimethylphenyl)-2,3-dihydro-1H-inden-1-yl)oxy)phenyl)-1,2-thiazinan-3-one 1,1-dioxide] | < 300

Now from value to compound:

Row | EC50 [nM] | SMILES
20 | < 300 | O=C1CC(c2ccc(O[C@@H]3CCc4c(-c5ccccc5C(F)(F)F)cccc43)cc2)CS(=O)(=O)N1 (stereo partly drawn) [Example 44, 5-(4-(((R)-4-(2-(trifluoromethyl)phenyl)-2,3-dihydro-1H-inden-1-yl)oxy)phenyl)-1,2-thiazinan-3-one 1,1-dioxide]
21 | < 300 | COc1cc(C)c(-c2cccc3c2CC[C@H]3Oc2ccc(C3CC(=O)NS(=O)(=O)C3)cc2)c(C)c1 (stereo partly drawn) [Example 46, 5-(4-(((R)-4-(4-methoxy-2,6-dimethylphenyl)-2,3-dihydro-1H-inden-1-yl)oxy)phenyl)-1,2-thiazinan-3-one 1,1-dioxide]
22 | < 300 | Cc1cccc(C)c1-c1cccc2c1CC[C@H]2Oc1ccc(C2CC(O)=N[S+]2[O-])cc1 (single isomer, unassigned) [Example 60]
23 | < 300 | CCOCCOc1cc(C)c(-c2cccc3c2CC[C@H]3Oc2ccc(C3CC(O)=N[S+]3[O-])cc2)c(C)c1 (single isomer, unassigned) [Example 58]
24 | < 300 | COc1ccc(-c2cccc3c2CC[C@H]3Oc2ccc(C3CC(O)=N[S+]3[O-])cc2)c(C)n1 (single isomer, unassigned) [Example 63]
25 | < 300 | Cc1nc(OCCCS(C)(=O)=O)ccc1-c1cccc2c1CC[C@H]2Oc1ccc(C2CC(O)=N[S+]2[O-])cc1 (single isomer, unassigned) [Example 62]
26 | < 300 | COc1cccc(F)c1-c1cccc2c1CC[C@H]2Oc1ccc(C2CC(O)=N[S+]2[O-])cc1 (single isomer, unassigned) [Example 68]
27 | < 300 | Cc1cc(OCCCS(C)(=O)=O)cc(C)c1-c1cccc2c1CC[C@H]2Oc1ccc(C2CC(=O)NS(=O)(=O)C2)cc1 (stereo partly drawn) [Example 45, 5-(4-(((R)-4-(2,6-dimethyl-4-(3-(methylsulfonyl)propoxy)phenyl)-2,3-dihydro-1H-inden-1-yl)oxy)phenyl)-1,2-thiazinan-3-one 1,1-dioxide]
28 | < 300 | O=C1CC(c2ccc(O[C@@H]3CCc4c(Oc5ccccc5)cccc43)cc2)CS(=O)(=O)N1 (stereo partly drawn) [Example 48, 5-(4-(((R)-4-phenoxy-2,3-dihydro-1H-inden-1-yl)oxy)phenyl)-1,2-thiazinan-3-one 1,1-dioxide]
29 | < 300 | O=C1CC(c2ccc(O[C@@H]3CCc4c(Oc5ccccc5)cccc43)cc2)CS(=O)(=O)N1 (stereo partly drawn) [Example 49, 5-(4-(((R)-4-phenoxy-2,3-dihydro-1H-inden-1-yl)oxy)phenyl)-1,2-thiazinan-3-one 1,1-dioxide (C)]
30 | < 300 | CCOc1ccc(F)cc1-c1cccc2c1CC[C@H]2Oc1ccc(C2CC(O)=N[S+]2[O-])cc1 (single isomer, unassigned) [Example 69]
31 | < 300 | Cc1ccccc1-c1cccc2c1CC[C@H]2Oc1ccc(C2CC(O)=N[S+]2[O-])cc1 (single isomer, unassigned) [Example 66]
32 | < 300 | COc1cc(C)c(-c2cccc3c2CC[C@H]3Oc2ccc(C3CC(O)=N[S+]3[O-])cc2)c(C)c1 (single isomer, unassigned) [Example 61]
33 | < 300 | CCOCCOc1cc(C)c(-c2cccc3c2CC[C@H]3Oc2ccc(C3CC(O)=N[S+]3[O-])cc2)c(C)c1 (single isomer, unassigned) [Example 57]
34 | < 300 | [O-][S+]1N=C(O)CC1c1ccc(O[C@@H]2CCc3c(-c4ccccc4C(F)(F)F)cccc32)cc1 (single isomer, unassigned) [Example 64]
35 | < 300 | Cc1cc(OCCCS(C)(=O)=O)cc(C)c1-c1cccc2c1CC[C@H]2Oc1ccc(C2CC(=O)N[S+]2[O-])cc1 (single isomer, unassigned) [Example 59]
36 | < 300 | Cc1ccc(F)cc1-c1cccc2c1CC[C@H]2Oc1ccc(C2CC(O)=N[S+]2[O-])cc1 (single isomer, unassigned) [Example 67]
37 | < 300 | [O-][S+]1N=C(O)CC1c1ccc(O[C@@H]2CCc3c(-c4cccnc4C(F)(F)F)cccc32)cc1 (single isomer, unassigned) [Example 65]
